Earlier results, collected in patent US20090156647A1, “Method for maintaining physiological pH levels during intensive physical exercise” (IOVATE T. & P. INC., priority 2007, published 2009).

Details: about 1.5 g of HICA daily after intense exercise for 42 days

CC(C)CC(O)C(=O)O (centres unmarked) [HICA, 2-hydroxy-4-methylvaleric acid]
delayed onset muscular soreness (DOMS) experienced by subjects: little to no DOMS
total lean soft tissue mass: statistically significant increase
